Experimental data published in ChEMBL document CHEMBL1131360, “Bis-S-acyl-2-thioethyl (SATE)-bearing monophosphate prodrug of beta-L-FD4C as potent anti-HBV agent” (Bioorg Med Chem Lett, 1998).

How the values were obtained:
HepG2 [1] = assay: Tested for cytotoxicity in human hepatoma cell (2.2.15); format: functional, cell-based
Colon 26 [2] = assay: Tested for cytotoxicity in murine colon cancer (C26); format: functional, cell-based; conditions: Mus musculus
B16 [3] = assay: Tested for cytotoxicity in murine melanoma (B16); format: functional, cell-based; conditions: Mus musculus
CCRF-CEM = assay: Tested for cytotoxicity in human T-cell lymphoblastic leukemia cell line (CEM); format: functional, cell-based
M109 [4] = assay: Tested for cytotoxicity in murine lung carcinoma (M109); format: functional, cell-based; conditions: Mus musculus
HepG2 [5] = assay: Tested for the ability to inhibit HBV DNA synthesis at a concentration of 4 nM using human hepatoblastoma cell line HepG2 2.2.15; format: functional
HepG2 [6] = assay: Tested for the ability to inhibit HBV replication at a concentration of 19 nM using human hepatoblastoma cell line HepG2 2.2.15; format: functional
HepG2 [7] = assay: Tested for the ability to inhibit extracellular HBV DNA synthesis at a concentration of 10 nM; format: functional; conditions: Homo sapiens
B16 [8] = assay: Tested for cytotoxicity in murine melanoma (B16); not cytotoxic at the highest concentration tested (70 uM); format: functional, cell-based, Mus musculus
HepG2 [9] = assay: Tested for cytotoxicity in human hepatoma cell (2.2.15); not cytotoxic at the highest concentration tested (70 uM); format: functional, cell-based
M109 [10] = assay: Tested for cytotoxicity in murine lung carcinoma (M109); not cytotoxic at the highest concentration tested (70 uM); format: functional, cell-based, Mus musculus
Colon 26 [11] = assay: Tested for cytotoxicity in murine colon cancer (C26); not cytotoxic at the highest concentration tested (70 uM); format: functional, cell-based, Mus musculus
HepG2 [12] = assay: Tested for effective concentration against HBV treated with drug every 3 days for 9 days using human hepatoblastoma cell line HepG2 2.2.15; format: functional, cell-based
HepG2 [13] = assay: Tested for the ability to inhibit HBV DNA synthesis at a concentration of 7 nM using human hepatoblastoma cell line HepG2 2.2.15; format: functional
HepG2 [14] = assay: Tested for the ability to inhibit HBV replication at a concentration of 40 nM using human hepatoblastoma cell line HepG2 2.2.15; format: functional

How did the IC50 (HepG2 [1]) turn out when `CC(=O)SCCOP(=O)(OCCS)OC[C@H]1C=C[C@@H](n2cc(F)c(N)nc2=O)O1` (some centres not stated) was run?
Its IC50 is greater than 70 µM.

And the IC50 (Colon 26 [2])?
The IC50 was greater than 70 µM.

And the IC50 (B16 [3])?
Its IC50 is greater than 70 µM.

And the IC50 (CCRF-CEM)?
Its IC50 is 52 µM.

And the IC50 (M109 [4])?
Its IC50 is greater than 70 µM.

Which IC50 (HepG2 [1]) does the source give for `CC(=O)SCCOP(=O)(OCCSC(C)=O)OC[C@H]1CC[C@@H](n2cnc3c(N)ncnc32)O1` here?
The IC50 was greater than 70 µM.

What about the IC50 (Colon 26 [2]) of the same molecule?
The IC50 was greater than 70 µM.

And the IC50 (B16 [3])?
The IC50 was greater than 70 µM.

What about the IC50 (CCRF-CEM) of the same molecule?
Its IC50 is 13 µM.

And the IC50 (M109 [4])?
The IC50 was greater than 70 µM.

With `CC(=O)SCCOP(=O)(OCCSC(C)=O)OC[C@H]1C=C[C@@H](n2cc(F)c(N)nc2=O)O1` as the molecule, how does the inhibition at 0.004 µM (HepG2 [5]) read?
The inhibition at 0.004 µM was 50%.

What about the inhibition at 0.019 µM (HepG2 [6]) of the same molecule?
Its inhibition at 0.019 µM is 90%.

What about the inhibition at 0.01 µM (HepG2 [7]) of the same molecule?
Its inhibition at 0.01 µM is 85%.

And the IC50 (B16 [8])?
Its IC50 is “Not Active”.

What about the IC50 (HepG2 [9]) of the same molecule?
Its IC50 is “Not Active”.

And the IC50 (M109 [10])?
The IC50 was “Not Active”.

And the IC50 (Colon 26 [11])?
Its IC50 is “Not Active”.

And the IC50 (CCRF-CEM)?
Its IC50 is 52 µM.

What about the EC50 (HepG2 [12]) of the same molecule?
Its EC50 is 0.002 µM.

What does the source list for `Nc1nc(=O)n([C@@H]2C=C[C@H](CO)O2)cc1F` [ELVUCITABINE]?
inhibition at 0.007 µM (HepG2 [13]): 50%; IC50 (B16 [8]): Not Active; IC50 (HepG2 [9]): Not Active; IC50 (M109 [10]): Not Active; IC50 (Colon 26 [11]): Not Active; inhibition at 0.04 µM (HepG2 [14]): 70%; IC50 (CCRF-CEM): 13 µM; EC50 (HepG2 [12]): 0.017 µM
